Laboratory results taken from BindingDB's records for doi:10.1074/jbc.M805358200 (University of Pittsburgh, 2008).

Assays:
Assay in all cases: IMAP-Based HTS FP Assay/ TR-FRET Assay
[1] = molecular target: T1, Serine/threonine-protein kinase D1 (Homo sapiens, UniProt Q15139)
T1 sequence (Q15139 whole entry): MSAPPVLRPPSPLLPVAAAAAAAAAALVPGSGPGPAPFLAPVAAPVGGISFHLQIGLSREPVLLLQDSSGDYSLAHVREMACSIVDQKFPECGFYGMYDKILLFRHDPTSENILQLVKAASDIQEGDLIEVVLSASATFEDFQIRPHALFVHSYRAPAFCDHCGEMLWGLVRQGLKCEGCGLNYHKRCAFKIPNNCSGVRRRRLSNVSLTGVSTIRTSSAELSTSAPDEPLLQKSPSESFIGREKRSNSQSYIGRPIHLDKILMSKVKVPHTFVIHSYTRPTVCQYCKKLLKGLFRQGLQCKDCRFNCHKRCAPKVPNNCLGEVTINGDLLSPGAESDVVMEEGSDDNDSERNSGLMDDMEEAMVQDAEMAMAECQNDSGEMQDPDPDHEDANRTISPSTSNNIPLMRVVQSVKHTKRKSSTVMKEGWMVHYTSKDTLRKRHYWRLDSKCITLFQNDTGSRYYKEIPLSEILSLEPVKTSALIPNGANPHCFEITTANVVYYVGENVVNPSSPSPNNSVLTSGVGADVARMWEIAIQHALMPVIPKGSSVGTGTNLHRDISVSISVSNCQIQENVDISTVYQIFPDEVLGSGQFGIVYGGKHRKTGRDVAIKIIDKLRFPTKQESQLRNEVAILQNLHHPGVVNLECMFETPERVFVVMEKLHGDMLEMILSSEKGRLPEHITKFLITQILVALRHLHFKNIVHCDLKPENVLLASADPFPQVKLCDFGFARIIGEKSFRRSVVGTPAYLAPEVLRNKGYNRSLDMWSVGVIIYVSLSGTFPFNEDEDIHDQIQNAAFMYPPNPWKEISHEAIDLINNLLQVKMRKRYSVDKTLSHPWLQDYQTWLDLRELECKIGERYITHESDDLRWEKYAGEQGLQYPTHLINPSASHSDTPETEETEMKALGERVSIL
From the text: (§1) An IMAP-based PKD HTS FR assay was used for primary HTS of the PMLSC library to identify hit compounds and subsequent secondary hit confirmation studies.

[2] = molecular target: Serine/threonine-protein kinase PLK1 (Homo sapiens, UniProt P53350)
From the text: as §1

[3] = molecular target: Cyclin-dependent kinase 7 (Homo sapiens, UniProt P50613)
From the text: as §1

[4] = molecular target: RAC-alpha serine/threonine-protein kinase (Homo sapiens, UniProt P31749)
From the text: as §1

Cyclin-dependent kinase 7, sequence (P50613 whole entry): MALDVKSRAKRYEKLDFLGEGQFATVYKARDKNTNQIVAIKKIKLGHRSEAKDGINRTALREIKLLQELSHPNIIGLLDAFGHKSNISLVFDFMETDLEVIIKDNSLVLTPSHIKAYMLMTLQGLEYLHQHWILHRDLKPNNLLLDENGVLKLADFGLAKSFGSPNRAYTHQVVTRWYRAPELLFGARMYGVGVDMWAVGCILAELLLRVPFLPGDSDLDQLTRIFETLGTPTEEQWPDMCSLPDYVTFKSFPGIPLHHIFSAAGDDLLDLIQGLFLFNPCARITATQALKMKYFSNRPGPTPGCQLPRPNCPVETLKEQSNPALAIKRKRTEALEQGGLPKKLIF
Serine/threonine-protein kinase PLK1, sequence (P53350 whole entry): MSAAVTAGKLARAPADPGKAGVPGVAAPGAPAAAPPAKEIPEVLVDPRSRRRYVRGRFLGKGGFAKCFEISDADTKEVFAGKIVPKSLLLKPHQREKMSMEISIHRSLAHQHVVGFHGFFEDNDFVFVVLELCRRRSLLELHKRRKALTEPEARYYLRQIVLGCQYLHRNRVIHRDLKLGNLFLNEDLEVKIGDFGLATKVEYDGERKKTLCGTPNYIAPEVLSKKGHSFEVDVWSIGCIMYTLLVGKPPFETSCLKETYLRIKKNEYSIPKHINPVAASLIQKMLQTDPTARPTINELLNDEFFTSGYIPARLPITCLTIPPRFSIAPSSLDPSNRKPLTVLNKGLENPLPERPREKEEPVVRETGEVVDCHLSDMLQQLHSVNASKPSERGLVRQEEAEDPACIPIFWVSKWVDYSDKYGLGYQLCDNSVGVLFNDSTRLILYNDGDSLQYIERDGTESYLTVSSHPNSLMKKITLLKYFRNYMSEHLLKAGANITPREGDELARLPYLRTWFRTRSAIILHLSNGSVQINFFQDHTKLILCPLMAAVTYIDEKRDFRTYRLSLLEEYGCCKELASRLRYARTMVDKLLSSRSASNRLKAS
RAC-alpha serine/threonine-protein kinase, sequence (P31749 whole entry): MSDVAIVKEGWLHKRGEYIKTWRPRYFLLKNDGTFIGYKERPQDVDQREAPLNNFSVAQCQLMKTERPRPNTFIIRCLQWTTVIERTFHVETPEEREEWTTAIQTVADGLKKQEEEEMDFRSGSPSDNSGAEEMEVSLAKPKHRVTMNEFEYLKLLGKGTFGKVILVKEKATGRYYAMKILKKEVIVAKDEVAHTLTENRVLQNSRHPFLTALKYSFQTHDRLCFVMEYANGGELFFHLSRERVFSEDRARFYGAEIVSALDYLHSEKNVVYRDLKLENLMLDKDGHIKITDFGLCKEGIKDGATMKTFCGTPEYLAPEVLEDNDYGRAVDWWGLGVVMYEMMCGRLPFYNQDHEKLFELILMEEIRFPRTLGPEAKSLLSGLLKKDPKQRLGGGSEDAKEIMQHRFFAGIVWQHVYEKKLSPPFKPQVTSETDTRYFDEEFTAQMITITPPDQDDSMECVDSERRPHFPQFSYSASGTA

| Compound | IC50 [1] [µM] | IC50 [2] [µM] | IC50 [3] [µM] | IC50 [4] [µM] |
| --- | --- | --- | --- | --- |
| O=C1NCCCc2c1oc1ccc(O)cc21 [7-hydroxy-2,3,4,5-tetrahydro-[1]benzofuro[2,3-c]azepin-1-one] | 0.5 | 20.3 | 15.3 | > 50 |
| O=c1oc2ccc(O)cc2c2c1NCCC2 [CID 797718] | – | 21.9 | 8.4 | > 50 |
